Assays:
[1] = target: Acetylcholinesterase (Electrophorus electricus, UniProt O42275); assay: Inhibition of electric eel AChE using acetylthiocholine iodide as substrate preincubated for 5 mins followed by substrate addition by DTNB reagent based Ellman's method
[2] = target: Cholinesterase (Equus caballus) (UniProt P81908); assay: Inhibition of equine serum BuChE using butyrylthiocholine iodide as substrate at 10 uM preincubated for 5 mins followed by substrate addition by DTNB reagent based Ellman's method relative to control; format: cell-free
[3] = in vitro; conditions: PAMPA
[4] = target: Cholinesterase (Homo sapiens) (UniProt P06276); assay: Inhibition of human BuChE using butyrylthiocholine iodide as substrate at 10 uM preincubated for 5 mins followed by substrate addition by DTNB reagent based Ellman's method relative to control
[5] = target: Acetylcholinesterase (Homo sapiens, UniProt P22303); assay: Inhibition of human AChE using acetylthiocholine iodide as substrate preincubated for 5 mins followed by substrate addition by DTNB reagent based Ellman's method
Acetylcholinesterase (Homo sapiens, UniProt P22303), sequence (P22303 whole entry): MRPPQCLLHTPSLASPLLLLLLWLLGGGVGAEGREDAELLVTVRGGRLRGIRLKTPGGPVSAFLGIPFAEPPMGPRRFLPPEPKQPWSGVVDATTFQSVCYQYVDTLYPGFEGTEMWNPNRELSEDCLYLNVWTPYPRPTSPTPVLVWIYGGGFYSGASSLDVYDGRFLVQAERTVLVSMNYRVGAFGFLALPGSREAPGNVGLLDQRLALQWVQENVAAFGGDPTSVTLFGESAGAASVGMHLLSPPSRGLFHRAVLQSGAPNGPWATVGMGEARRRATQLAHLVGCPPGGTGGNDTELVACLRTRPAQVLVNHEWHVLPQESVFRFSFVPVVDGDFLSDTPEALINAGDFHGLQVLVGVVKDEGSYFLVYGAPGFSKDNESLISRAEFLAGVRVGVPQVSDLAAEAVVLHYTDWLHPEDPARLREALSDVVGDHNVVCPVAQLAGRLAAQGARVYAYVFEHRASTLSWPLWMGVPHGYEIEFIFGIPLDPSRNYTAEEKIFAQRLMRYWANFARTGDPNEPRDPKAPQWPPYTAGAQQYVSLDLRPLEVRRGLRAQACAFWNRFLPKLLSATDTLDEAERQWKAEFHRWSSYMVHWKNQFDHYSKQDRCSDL

Cholinesterase (Equus caballus), sequence (P81908 whole entry): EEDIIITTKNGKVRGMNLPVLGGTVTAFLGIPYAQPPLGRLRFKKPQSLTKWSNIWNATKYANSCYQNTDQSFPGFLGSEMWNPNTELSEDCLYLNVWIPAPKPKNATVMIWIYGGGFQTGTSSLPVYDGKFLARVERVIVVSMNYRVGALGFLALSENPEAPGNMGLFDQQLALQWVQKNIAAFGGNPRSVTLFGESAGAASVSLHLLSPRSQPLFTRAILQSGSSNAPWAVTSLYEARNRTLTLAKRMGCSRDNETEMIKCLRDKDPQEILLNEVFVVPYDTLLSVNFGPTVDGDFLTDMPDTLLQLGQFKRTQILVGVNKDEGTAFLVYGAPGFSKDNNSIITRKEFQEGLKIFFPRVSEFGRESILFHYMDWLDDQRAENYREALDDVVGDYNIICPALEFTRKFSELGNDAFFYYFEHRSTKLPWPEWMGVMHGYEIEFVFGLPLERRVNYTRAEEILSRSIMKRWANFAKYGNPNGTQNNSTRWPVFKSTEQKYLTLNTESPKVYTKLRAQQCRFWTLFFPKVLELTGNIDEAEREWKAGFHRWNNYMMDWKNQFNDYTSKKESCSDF
Acetylcholinesterase (Electrophorus electricus, UniProt O42275), sequence (O42275 whole entry): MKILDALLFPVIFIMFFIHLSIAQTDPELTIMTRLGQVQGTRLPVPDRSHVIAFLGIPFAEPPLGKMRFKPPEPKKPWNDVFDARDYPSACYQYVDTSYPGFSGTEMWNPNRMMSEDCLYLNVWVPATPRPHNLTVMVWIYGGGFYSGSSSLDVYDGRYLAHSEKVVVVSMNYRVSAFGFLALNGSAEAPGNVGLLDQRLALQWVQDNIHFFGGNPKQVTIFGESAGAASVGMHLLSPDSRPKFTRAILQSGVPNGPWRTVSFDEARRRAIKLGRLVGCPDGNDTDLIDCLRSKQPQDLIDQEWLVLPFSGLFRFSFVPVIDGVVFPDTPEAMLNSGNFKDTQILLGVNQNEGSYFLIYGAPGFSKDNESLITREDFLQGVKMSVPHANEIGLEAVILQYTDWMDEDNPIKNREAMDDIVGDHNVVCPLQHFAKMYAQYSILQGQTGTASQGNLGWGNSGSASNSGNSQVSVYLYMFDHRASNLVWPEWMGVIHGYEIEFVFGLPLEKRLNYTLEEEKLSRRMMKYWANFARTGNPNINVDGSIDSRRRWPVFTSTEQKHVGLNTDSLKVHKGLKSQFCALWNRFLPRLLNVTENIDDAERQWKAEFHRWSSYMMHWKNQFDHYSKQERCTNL
Cholinesterase (Homo sapiens), sequence (P06276 whole entry): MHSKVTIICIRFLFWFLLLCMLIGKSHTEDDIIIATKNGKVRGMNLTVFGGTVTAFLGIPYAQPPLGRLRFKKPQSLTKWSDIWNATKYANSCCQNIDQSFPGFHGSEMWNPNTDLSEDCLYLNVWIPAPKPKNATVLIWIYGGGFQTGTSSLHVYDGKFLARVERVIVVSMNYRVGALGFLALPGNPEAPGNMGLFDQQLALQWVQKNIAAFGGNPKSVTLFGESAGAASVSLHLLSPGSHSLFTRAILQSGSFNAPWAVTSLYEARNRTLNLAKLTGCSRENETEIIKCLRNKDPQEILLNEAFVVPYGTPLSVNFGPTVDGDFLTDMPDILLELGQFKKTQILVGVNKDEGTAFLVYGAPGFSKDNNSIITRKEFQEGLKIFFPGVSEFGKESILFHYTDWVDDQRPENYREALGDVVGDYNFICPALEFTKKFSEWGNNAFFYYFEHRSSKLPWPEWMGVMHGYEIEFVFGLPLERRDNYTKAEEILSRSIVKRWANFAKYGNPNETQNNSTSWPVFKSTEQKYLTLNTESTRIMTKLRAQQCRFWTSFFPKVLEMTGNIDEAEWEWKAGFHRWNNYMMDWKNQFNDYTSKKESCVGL

| SMILES | IC50 [1] | inhibition [2] | Papp at 18 h [3] | inhibition [4] | IC50 [5] |
| --- | --- | --- | --- | --- | --- |
| COC(=O)/C=C/C(=O)Nc1cccc(OCCCCSC(=S)N2C(C)CCCC2C)c1 (stereo unspecified) | 16.5 µM | 7.14% | – | – | – |
| COC(=O)/C=C/C(=O)Nc1cccc(OCCCCCCSC(=S)N2CCCCC2)c1 | 28.7 µM | < 5% | – | – | – |
| COC(=O)/C=C/C(=O)Nc1cccc(OCCSC(=S)N2CCCCC2)c1 | 2.56 µM | 12.8% | 21.3 ×10⁻⁶ cm/s | 6.83% | 1390 nM |
| COC(=O)/C=C/C(=O)Nc1cccc(OCCCCSC(=S)N2CCN(C)CC2)c1 | 91.6 µM | > 5% | – | – | – |
| COC(=O)/C=C/C(=O)Nc1cccc(OCCCCSC(=S)N2CCOCC2)c1 | 74.2 µM | 6.88% | – | – | – |
| CC(=O)[C@H]1CC[C@H]2[C@@H]3CCC4=CC(=O)CC[C@]4(C)[C@H]3CC[C@]12C [PROGESTERONE] | – | – | 11.2 ×10⁻⁶ cm/s | – | – |
| COC(=O)/C=C/C(=O)Nc1cccc(OCCCCCSC(=S)N2CCCCC2)c1 | 26.7 µM | < 5% | – | – | – |
| COC(=O)/C=C/C(=O)Nc1cccc(OCCCSC(=S)N2CCCCC2)c1 | 2.38 µM | 13.2% | 13 ×10⁻⁶ cm/s | 7.06% | 1980 nM |

— ChEMBL document CHEMBL5344402, “A multi-target directed ligands strategy for the treatment of Alzheimer's disease: Dimethyl fumarate plus Tranilast modified Dithiocarbate as AChE inhibitor and Nrf2 activator” (Eur J Med Chem, 2022)
